From US7179821B2, “Method of treating of demyelinating diseases or conditions” (Aventis Pharmaceuticals Inc., priority 2001, dated 2007)
Values joined by “and” are separate entries in the source; they are usually repeats but may differ in a detail not shown here. Identical values can stand only once. Marks after values point to notes of the source that are not given here.

Columns and labels:
[1] = tested on: mechanical hyperalgesia after nerve ligation; assay: Neuropathic pain model, spinal nerve constriction, von Frey paw withdrawal threshold; type: in vivo, rat; details: 90 mg/kg sc, tested 45 minutes after dosing
Procedure: Adult male Sprague-Dawley rats received unilateral constriction of the L6 nerve to produce chronic nerve injury. Following recovery from surgery (3–7 days post operative) animals were tested for paw withdrawal threshold to mechanical stimuli applied to the affected paw. This was determined by the application of calibrated von Frey monofilaments to the plantar surface of each hindpaw. Only animals with a 50% decrease in withdrawal threshold in the ligated paw were employed in the study, and were randomly assigned to one of 6 groups: three groups receiving one of three doses of HP 184 (0.3, 3 and 20 mg/kg, po), a fourth group receiving a single dose of another compound referred to MDL (10 mg/kg, ip), a fifth group receiving gabapentin (90 mg/kg, sc), and a sixth group receiving vehicle only. Behavioral testing occurred 45 minutes following the gabapentin (90 mg/kg, sc), and 3 hours following the HP 184, MDL, and vehicle. A difference score between the ligated and non-ligated paw withdrawal thresholds is calculated for each animal, and these differences were subjected to ANOVA with group as the main factor. […] Analysis was between/within repeated measures ANOVA. […]

[2] = tested on: RuR-induced flaccid paralysis; assay: Antagonism of ruthenium red (RuR)-induced flaccid paralysis, flagpole test; type: in vivo, mouse; details: for antagonism of the flaccid paralysis induced by ip RuR (conclusion): doses of Table 3
Procedure: Method and Results: Groups of 4–5 mice (CD-1; Charles River; 25–35 grams) were separately but simultaneously injected ip with ruthenium red and vehicle (1% glacial acetic acid), ruthenium red and 4-AP, or ruthenium red and HP 184. The compound known as “8183” was also tested in this paradigm. Starting at 15 minutes after injections, mice were placed near a “flagpole” apparatus and their ability to support their own body weight (ie, to hold on to the flagpole and not fall) was recorded. Results were recorded as the number of mice that could support their own body weight versus the total number of mice tested. All experiments were performed between 2PM and 4:30PM.

[3] = tested on: long-standing (25 days) spinal cord injury of minor intensity; assay: Chronic crush experiment, 25-day old mild compression injury (1.6 mm), OFT score; type: in vivo, rat
Description: Normal spinal cord diameter is approximately 2.5 mm. This compression represents a moderate injury characterized by initial open field walking scores of 1.5–2.5 in the Open Field Walking Scale. […] The spinal cords of female rats were exposed to laminectomy or crush to a diameter of 1.6 mm. This represented a minor injury, and was designed to result in OFT scores of 4.0 after 25 days of no treatment. […] In this experiment, OFT scores were slightly higher (4.3–4.5), leaving only a small window for improvement. […] Consistent improvement was also observed after once a day ip 0.6 mg/kg 4-AP as well. The statistical differences were based upon the changes for each individual rat (each rat was its own control) using Mann-Whitney U-test. All the behavioral tests on day1, day2 and day3 were performed at 3 hours after gavage. There was no drug given on day3 (first day started to give drug was day 0).

[4] = tested on: moderate chronic (35 days post-injury) spinal cord crush; assay: Long standing moderate spinal cord crush (35 days), OFT score; type: in vivo, rat
Description: A tabular representation of the results from both chronic spinal cord injury studies (drugs first administered 25 days after a mild spinal cord crush and 35 days after a moderate spinal cord crush) are shown in Table 5.
One hundred fifty adult female Wistar rats, 250–300 g weight, obtained from Charles River were housed in the McMaster University Health Sciences Centre (HSC) Central Animal Facilities (CAF) for at least one week. During that time they were exposed to the performance tests described below, to ensure they were familiar with them. Rats were handled daily for 2 weeks prior to surgery.
Rats were anesthetized using isoflurane (3–5%): O2 (1 L/min) in an appropriately equipped surgical suite in the CAF. Temgesic (0.03 mg/kg body weight, subcutaneously (SQ)) was administered prior to surgery for pain relief. Spinal cords were crushed (compressed) with a 3.5 mm wide modified coverslip forceps (Blight 1991, procedure revised by Rathbone laboratory). The forceps were closed to 1.4 mm for 15 sec, which produced injury level equivalent to the mid-level (moderate) outcome on the Gruner scale (1996). The compression injury was otherwise performed according to the procedure described by Blight (1991).
Changes in locomotor behaviour and segmental reflexes were assessed up to 5 weeks post injury. Animals were tested in an open field walking task, hind limb placement and foot orientation. The animals were evaluated on days 2, 7, 14, 21, 28 and 35 after surgery. By 35 days after surgery, almost no further spontaneous recovery occurs. Therefore treatment began on day 35.
HP184 was dissolved in sterilized (autoclaved) deionized reverse-osmosis water acidified with glacial acetic acid (0.1 ml acid per 10 ml of water). 4-AP (Sigma, molecular weight 94.12; Jankowska E. et al., 1982; Gruner et al., 1999) was dissolved in physiological saline (0.6 mg/kg b.w.) and was administered by i.p. injection. One group of rats (vehicle control-1) received by oral gavage vehicle. Behaviourial testing was done immediately prior to receiving the gavage and at 3 hours thereafter. Then, the rats were scarified on day 35. All the other rats received either HP184 by oral gavage (0.3, 1, or 3 mg/kg bw depending on the group) or 4-AP (0.6 mg/kg, i.p.) or vehicle (vehicle control-2) once a day on the 35 to 42 days after surgery. On these days behaviourial tests were done immediately prior to receiving the gavage at 3 and 24 hours thereafter. Then, the rats were perfused on day 43 after the last behaviourial testing.
Statistical analyses were performed on a Macintosh computer using GB-Stat ppc 6.5.2. The behavioral scores were analyzed by the Kruskal-Wallis nonparametric analysis of variance (ANOVA). Post hoc comparisons were made using Mann-Whitney U tests.

[5] = tested on: demyelinated area at the moderate compression injury site; assay: Histological study of spinal cords, demyelinated area (luxol fast blue); type: in vivo, rat; details: HP184 0.3, 1 or 3 mg/kg po or 4-AP 0.6 mg/kg ip, days 35–42 after moderate crush
Procedure: A study to test whether the treatment with HP184 affected the amount of myelin in rats with moderate long term spinal cord crush injury when administered long after spinal cord injury.
The spinal cords from rats described above in the assessment were used for this study.
(50–60 mg/kg body weight, i.p.) and perfused transcardically—first with 100 mL 0.05M phosphate buffed saline (PBS) containing 0.1% heparin, followed by 300–500 mL of 4% paraformaldehyde (PFA). Segments T9 to L1 of the spinal cords were taken out, then cryo-protected in 30% sucrose solution and frozen at −70° C. in 10.24% polyvinyl alcohol and 4.26% polyethylene glycol.
A segment of each cord including the lesion site plus 10 mm rostral and caudal to the lesion site was embedded in Tissue Tek medium. Serial sections were cut longitudinally at 20 μm intervals on a cryostat. Every third section was stained with luxol fast blue for myelin. The evaluation was performed by observers blinded as to treatment, on coded slides. Sections were examined under a light microscope for the extent of demyelination (the area without luxol fast blue staining).
For determinations of the maximal demyelinated area of the cord, the whole section was digitized on photographs using a Zeiss microscope. The extent of demyelination was measured at the lesion center using a computerized Bioquant BQ-TCW98 image analysis progrem by an investigator who was blind to treatment group.
Statistical analysis was performed on a Macintosh computer using GB-Stat ppc 6.5.2. The histological results were analyzed by the Kruskal-Wallis nonparametric analysis of variance (ANOVA). Post hoc comparisons were made using Mann-Whitney U tests.

[6] = tested on: SCI and MS patients; details: cited from earlier work
[7] = 0.3 mg/kg ip with RuR 30 mg/kg ip, 15 min
[8] = 0.3 mg/kg ip with RuR 30 mg/kg ip, 30 min
[9] = 0.3 mg/kg ip with RuR 30 mg/kg ip, 45 min
[10] = 0.6 mg/kg ip with RuR 30 mg/kg ip, 15 min
[11] = 0.6 mg/kg ip with RuR 30 mg/kg ip, 30 min
[12] = 0.6 mg/kg ip with RuR 30 mg/kg ip, 45 min
[13] = 10 mg/kg ip with RuR 30 mg/kg ip, 15 min
[14] = 10 mg/kg ip with RuR 30 mg/kg ip, 30 min
[15] = 10 mg/kg ip with RuR 30 mg/kg ip, 45 min
[16] = 30 mg/kg ip with RuR 30 mg/kg ip, 15 min
[17] = 30 mg/kg ip with RuR 30 mg/kg ip, 30 min
[18] = 30 mg/kg ip with RuR 30 mg/kg ip, 45 min
[19] = 100 mg/kg ip with RuR 30 mg/kg ip, 15 min
[20] = 100 mg/kg ip with RuR 30 mg/kg ip, 30 min
[21] = 100 mg/kg ip with RuR 30 mg/kg ip, 45 min

NCC1(CC(=O)O)CCCCC1 [gabapentin, reference compound]
mechanical hyperalgesia, difference of ligated minus normal paw withdrawal threshold, FIG. 10 [1]: clear reversal of hyperalgesia

Nc1ccncc1 [4-AP, 4-amino pyridine]
% of mice that could support their own body weight [2, 7]: (88%)
number of mice that could support their own body weight versus total tested [2, 7]: 22 out of 25
% of mice that could support their own body weight [2, 8]: (52%)
number of mice that could support their own body weight versus total tested [2, 8]: 13 out of 25
% of mice that could support their own body weight [2, 9]: (48%)
number of mice that could support their own body weight versus total tested [2, 9]: 12 out of 25
% of mice that could support their own body weight [2, 10]: (85.7%)
number of mice that could support their own body weight versus total tested [2, 10]: 12 out of 14
% of mice that could support their own body weight [2, 11]: (57.1)
number of mice that could support their own body weight versus total tested [2, 11]: 8 out of 14
% of mice that could support their own body weight [2, 12]: (57.1%)
number of mice that could support their own body weight versus total tested [2, 12]: 8 out of 14
antagonism of the flaccid paralysis induced by ip RuR (conclusion) [2]: can antagonize the flaccid paralysis
OFT improvement compared to vehicle control (Mann-Whitney U-test) ([3]; 0.6 mg/kg ip once a day, p=0.0027): significant improvement at 90 min to 3 h and 12 h to day 2
OFT score 3 hours after last dose (Day 28, mild) ([3]; 0.6 mg/kg ip once a day, three consecutive daily doses): 4.53 ± 0.02 and 4.53 ± .023
% possible improvement (highest score = 5), mild ([3]; 0.6 mpk ip): 17.5%*
Delta of OFT score, Day 25 to Day 28 (mild) ([3]; 0.6 mpk ip): .10
OFT score prior to dose (Day 25, mild) ([3]; group 0.6 mg/kg ip, baseline before dosing): 4.43 ± 0.03 and 4.43 ± .030
motor recovery, Open Field Walking Test ([4]; 0.6 mg/kg ip, thirty-five days after moderate injury): similarly effective
% possible improvement, moderate ([4]; 0.6 mpk ip): 22.1%*
Delta of OFT score, Day 35 to Day 39 (moderate) ([4]; 0.6 mpk ip): .22
OFT score Day 39 (moderate) 3 hrs after last dose ([4]; 0.6 mpk ip daily): 4.17 ± .047
open field locomotor ability (mean OFT scores) vs vehicle, FIGS. 6a and 6b ([4]; HP184 0.3, 1 or 3 mg/kg po or 4-AP 0.6 mg/kg ip once a day, days 35–42, treatment effect p<0.01): significantly different from that of control animals receiving vehicle
OFT score Day 35 (moderate) prior ([4]; group 0.6 mpk ip, baseline before dosing): 3.95 ± .084
myelinated / demyelinated area at the crush center, FIG. 7 [5]: significantly greater myelinated area than that of saline controls
doses at which restlessness, confusion and generalized tonic-clonic seizures have been reported ([6]; Ball et al, 1979, Bever et al, 1994): higher than 0.8 mg/kg
serum level necessary for significant improvement ([6]; MS patients, oral administration (Van Diemen et al, 1993)): 33 to 75 ng/mL
serum level at which a grand mal seizure was reported ([6]; human study (Bever et al, 1994)): 104 ng/mL

Nc1nc2ccc(OC(F)(F)F)cc2s1 [RIL, riluzole]
% of mice that could support their own body weight [2, 13]: (60%)
number of mice that could support their own body weight versus total tested [2, 13]: 9 out of 15
% of mice that could support their own body weight [2, 14]: (26.7%)
number of mice that could support their own body weight versus total tested [2, 14]: 4 out of 15
% of mice that could support their own body weight [2, 15]: (26.7%)
number of mice that could support their own body weight versus total tested [2, 15]: 4 out of 15
antagonism of the flaccid paralysis induced by ip RuR (conclusion) [2]: lack of effect

Cc1cn(Nc2ccncc2F)c2ccccc12 [compound 8183]
% of mice that could support their own body weight [2, 16]: (92.8%)
number of mice that could support their own body weight versus total tested [2, 16]: 13 out of 14
% of mice that could support their own body weight [2, 17]: (92.8%)
number of mice that could support their own body weight versus total tested [2, 17]: 13 out of 14
% of mice that could support their own body weight [2, 18]: (100%)
number of mice that could support their own body weight versus total tested [2, 18]: 14 out of 14

diphenylhydaintoin [DPH]
% of mice that could support their own body weight [2, 16]: (26.7%)
number of mice that could support their own body weight versus total tested [2, 16]: 4 out of 15
% of mice that could support their own body weight [2, 17]: (20%)
number of mice that could support their own body weight versus total tested [2, 17]: 3 out of 15
% of mice that could support their own body weight [2, 18]: (26.7%)
number of mice that could support their own body weight versus total tested [2, 18]: 4 out of 15
% of mice that could support their own body weight [2, 19]: (55%)
number of mice that could support their own body weight versus total tested [2, 19]: 11 out of 20
% of mice that could support their own body weight [2, 20]: (50%)
number of mice that could support their own body weight versus total tested [2, 20]: 10 out of 20
% of mice that could support their own body weight [2, 21]: (50%)
number of mice that could support their own body weight versus total tested [2, 21]: 10 out of 20
antagonism of the flaccid paralysis induced by ip RuR (conclusion) [2]: lack of effect
